Results taken from patent publication US7834010B2, “Modulators of peripheral 5-HT receptors” (Serodus AS, priority 2003, dated 2010).
Several values for one entry are separate records, joined by “and”; a condition that tells them apart may be missing. Equal entries are not always repeated.

What was measured:
human 5-HT4(b) receptors [1] = molecular target: T1, human 5-HT4(b) receptors (Homo sapiens, UniProt Q13639); experiment: Adenylyl cyclase assay in membranes of HEK293 cells stably expressing human 5-HT4(b) receptors; format: biochemical; conditions: for Kb: each line one individual measurement, read-out: Antagonist pKb value (individual measurements) (converted)
T1 construct: expressed in transfected cells; membranes prepared
T1 sequence (Q13639 whole entry): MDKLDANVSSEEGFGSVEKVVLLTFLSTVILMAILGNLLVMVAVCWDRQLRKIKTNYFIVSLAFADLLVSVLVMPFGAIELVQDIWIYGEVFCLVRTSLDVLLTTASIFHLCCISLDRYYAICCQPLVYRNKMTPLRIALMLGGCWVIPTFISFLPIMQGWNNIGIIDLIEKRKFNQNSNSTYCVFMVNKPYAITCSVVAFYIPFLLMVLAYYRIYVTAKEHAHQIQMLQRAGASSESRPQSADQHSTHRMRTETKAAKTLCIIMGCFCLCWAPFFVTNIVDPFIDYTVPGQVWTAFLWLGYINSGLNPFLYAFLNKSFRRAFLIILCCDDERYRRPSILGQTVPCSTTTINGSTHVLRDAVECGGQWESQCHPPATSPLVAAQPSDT
Method: (§1) Establishment of HEK293 Cell Lines Stably Expressing Human 5-HT4(b) Receptors
(§2) The development of HEK293 cell lines stably expressing human 5-HT4(b) receptors was described and published previously (Bach et al. 2001). Briefly, HEK293 cells (ATCC) were grown in Dulbecco's modified Eagle's medium with 10% fetal calf serum and penicillin (100 U/ml) and streptomycin (100 μg/ml). Cells were transfected with plasmid DNA (pcDNA3.1(−) containing human 5-HT4(b) receptor cDNA) using SuperFect Transfection Reagent (QIAGEN) according to the manufacturers protocol. Serial dilutions of transfected cells were plated in 96 well plates containing G418 (geneticin; Amersham) at 0.4 mg/ml, and isolated single colonies of cells transformed to the neomycin-resistant phenotype were expanded and tested for expression of serotonin receptors by measuring serotonin-stimulated adenylyl cyclase activity (Themmen et al. 1993). Transformed cells were always grown in the presence of G418 (0.4 mg/ml). For binding and adenylyl cyclase analysis, stable cell lines were grown and maintained in UltraCULTURE™ general purpose serum-free medium (BioWhittaker, Walkersville, Md., USA), supplemented with L-glutamine (2 mM), penicillin (100 U/ml) and streptomycin (100 μg/ml).
Membrane Preparation for Radioligand Binding and Adenylyl Cyclase Assay
Membranes were prepared from stably transfected HEK293 cells cultured on 150-mm cell culture dishes and grown to 80% confluence in serum-free medium (UltraCULTURE™, BioWhittaker) with penicillin (10 U/ml) and 2 mM L-Glutamine (BioWhittaker). Cells were washed twice with 10 ml ice-cold HBSS, scraped with a rubber policeman in 10 ml ice-cold HBSS and collected by centrifugation at 800 g for 5 min at 4° C. The cell pellet was resuspended in 1 ml/dish ice-cold STE buffer (27% (w/v) sucrose, 50 mM Tris-HCl, pH 7.5 at 20° C., 5 mM EDTA) and homogenized with an Ultra-Turrax (IKA) homogenizer, using five 10 s bursts with 30 s cooling in ice-water between bursts. To remove nuclei, the homogenate was centrifuged at 300 g for 5 min at 4° C. and the supernatant was further centrifuged at 17000 g for 20 min at 4° C. and the supernatant removed. The crude membrane pellet was resuspended with ten strokes of tight fitting pestle B in a Dounce glass-glass homogenizer in 1 ml/dish ice-cold TE (50 mM Tris-HCl, pH 7.5 at RT, 5 mM EDTA). This procedure was repeated twice and the resuspended membranes were finally aliquoted and flash frozen in liquid nitrogen and stored at −70° C. until use.
Adenylyl cyclase activity was measured by determining conversion of [α-^32P]ATP to [^32P]cAMP in membranes prepared in STE by homogenization of cells grown and washed as described above in a Dounce glass-glass homogenizer by 10 strokes with the tight-fitting pestle. Membranes were kept on ice prior to assay. Adenylyl cyclase activities were measured on 10-μl aliquots in a final volume of 50 μl in the presence of 0.1 mM [α-^32P]ATP (1-2×10^6 cpm/assay), 4 mM MgCl2, 20 μM GTP, 1 mM EDTA, 1 mM [^3H]cAMP (ca. 10,000 cpm/assay), 1 μM 3-isobutyl-1-methyl xanthine (IBMX; Sigma), a nucleoside triphosphate regenerating system consisting of 20 mM creatine phosphate (Sigma), 0.2 mg/ml creatine phosphokinase (Sigma) and 40 U/ml myokinase (Sigma) and additives described in the text and figures. When forskolin (Calbiochem, La Jolla, Calif., USA) was used the concentration was 100 μM. Incubations were for 20 min at 32EC. Cyclic AMP formed was quantified by the double column chromatography system of Salomon et al. (1974) as modified by Bockaert et al. (1976).
Binding and adenylyl cyclase data were analyzed by non-linear regression using Microsoft Excel with the Solver add-in, using the below equations.
Activation of adenylyl cyclase—The data were fit to the equation Y=a+(b−a)x/(c+x) where a is basal adenylyl cyclase activity, b is maximal adenylyl cyclase activity stimulated by the agonist, c is EC50, and x is the concentration of agonist.

human 5-HT4(b) receptors [2] = molecular target: T1, human 5-HT4(b) receptors; experiment: Radioligand binding assay with [3H]GR113808 on membranes of HEK293 cells stably expressing human 5-HT4(b) receptors; conditions: competition with [3H]GR113808, HEK293 membranes, each line one individual measurement, read-out: Binding affinity (pKd value) (individual measurements) (converted)
Method: as §1, §2
Membrane Preparation for Radioligand Binding and Adenylyl Cyclase Assay […]
Binding assays were performed in 96-well, round-bottom microtiter plates with total reaction volumes of 50-200 μl, containing the indicated concentration of [^3H]GR113808 with or without competing unlabelled ligand in a binding buffer containing 50 mM Tris-HCl (pH 7.5 at RT), 1 mM EDTA, 5 mM EGTA, 2 mM MgCl2, 1 mM ascorbate, 0.1% BSA and 100 μM GTP. […] The filters were dried and counted at approximately […] efficiency in a Top-Count liquid scintillation counter (Packard), using 20 μl per filter well of Micro-Scint liquid scintillation cocktail (Packard).
Binding and adenylyl cyclase data were analyzed by non-linear regression using Microsoft Excel with the Solver add-in, using the below equations. […]

Row | Structure (SMILES) | Agonist/Antagonist properties (human 5-HT4(b) receptors [1]) | Kb (human 5-HT4(b) receptors [1]) | Kd (human 5-HT4(b) receptors [2])
1 | CCCCN1CCC(COC(=O)c2c[nH]c3ccccc23)CC1 [DDL-6002] | Antagonist | 0.129 nM | 0.0282 nM and 0.0219 nM
2 | Cn1cc(C(=O)OCC2CCN(CCNS(C)(=O)=O)CC2)c2ccccc21 [GR113808, 1-methyl-1H-indole-3-carboxylic acid, [1-[2-[(methylsulfonyl)amino]ethyl]-4-piperidinyl]methyl ester] | Antagonist | 0.105 nM and 0.135 nM and 0.17 nM and 0.224 nM and 0.151 nM and 0.178 nM | 0.115 nM and 0.049 nM and 0.0617 nM and 0.0195 nM
3 | CCCCN1CCC(CNC(=O)c2c3n(c4ccccc24)CCCO3)CC1 [SB207266] | Antagonist | 0.132 nM and 0.17 nM | 0.0174 nM
